Experimental data published in PubChem BioAssay AID1963975 (Molecular Pharmacology Branch, DTP, NCI, 2024).
Values belong to the compound of their own block, whether it stands above or below them.

Tested on: 624824-186-R-J2-PDC multicell spheroids, viability
Test: Anticancer human tumor 624824-186-R-J2-PDC patient-derived colon adenocarcinoma cell line growth inhibition [PI3K]
Conditions: for IC50: curve of first compound; for viability, T/C: stronger effect = lower value
Method in brief: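 Complex 3D spheroids (cancer cells + endothelial HUVEC + mesenchymal stem cells); drug pairs of targeted agent x inavolisib/alpelisib/duvelisib/copanlisib; half-log series from ~Cmax, max 10 microM if Cmax unknown; endpoint viability.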

[1] = second compound 0.0316 µM, first compound 0.0316 µM
[2] = second compound 0.0316 µM, first compound 0.1 µM
[3] = second compound 0.1 µM, first compound 0.0316 µM
[4] = second compound 0.1 µM, first compound 0.1 µM
[5] = second compound 0.316 µM, first compound 0.0316 µM
[6] = second compound 0.316 µM, first compound 0.1 µM
[7] = second compound 1 µM, first compound 0.0316 µM
[8] = second compound 1 µM, first compound 0.1 µM
[9] = second compound 3.16 µM, first compound 0.0316 µM
[10] = second compound 3.16 µM, first compound 0.1 µM
[11] = second compound 10 µM, first compound 0.0316 µM
[12] = second compound 10 µM, first compound 0.1 µM
[13] = second compound 0.0316 µM, first compound 0.316 µM
[14] = second compound 0.0316 µM, first compound 1 µM
[15] = second compound 0.0316 µM, first compound 3.16 µM
[16] = second compound 0.0316 µM, first compound 10 µM
[17] = second compound 0.1 µM, first compound 0.316 µM
[18] = second compound 0.1 µM, first compound 1 µM
[19] = second compound 0.1 µM, first compound 3.16 µM
[20] = second compound 0.1 µM, first compound 10 µM
[21] = second compound 0.316 µM, first compound 0.316 µM
[22] = second compound 0.316 µM, first compound 1 µM
[23] = second compound 0.316 µM, first compound 3.16 µM
[24] = second compound 0.316 µM, first compound 10 µM
[25] = second compound 1 µM, first compound 0.316 µM
[26] = second compound 1 µM, first compound 1 µM
[27] = second compound 1 µM, first compound 3.16 µM
[28] = second compound 1 µM, first compound 10 µM
[29] = second compound 3.16 µM, first compound 0.316 µM
[30] = second compound 3.16 µM, first compound 1 µM
[31] = second compound 3.16 µM, first compound 3.16 µM
[32] = second compound 3.16 µM, first compound 10 µM
[33] = second compound 10 µM, first compound 0.316 µM
[34] = second compound 10 µM, first compound 1 µM
[35] = second compound 10 µM, first compound 3.16 µM
[36] = second compound 10 µM, first compound 10 µM
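Note: spheroids exposed to agents for 7 days before viability read.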
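Throughout, for viability, T/C: 100% = DMSO vehicle treated spheroids.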

IC50 (second compound 0.0316 µM): > 0.1 µM | IC50 (second compound 0.1 µM): > 0.1 µM | IC50 (second compound 0.316 µM): > 0.1 µM | IC50 (second compound 1 µM): > 0.1 µM | IC50 (second compound 3.16 µM): > 0.1 µM | IC50 (second compound 10 µM): > 0.1 µM
Compound: CC(=O)c1c(C)c2cnc(Nc3ccc(N4CCNCC4)cn3)nc2n(C2CCCC2)c1=O + Cc1nc(NC(=O)N2CCCC2C(N)=O)sc1-c1ccnc(C(C)(C)C(F)(F)F)c1
viability, T/C (second compound 0.0316 µM, first compound 0.000316 µM): 81.6% | viability, T/C (second compound 0.0316 µM, first compound 0.001 µM): 72.8% | viability, T/C (second compound 0.0316 µM, first compound 0.00316 µM): 83.6% | viability, T/C (second compound 0.0316 µM, first compound 0.01 µM): 79.2% | viability, T/C [1]: 74.1% | viability, T/C [2]: 82.8% | viability, T/C (second compound 0.1 µM, first compound 0.000316 µM): 98.2% | viability, T/C (second compound 0.1 µM, first compound 0.001 µM): 105% | viability, T/C (second compound 0.1 µM, first compound 0.00316 µM): 93.6% | viability, T/C (second compound 0.1 µM, first compound 0.01 µM): 75.9% | viability, T/C [3]: 91.4% | viability, T/C [4]: 76.2% | viability, T/C (second compound 0.316 µM, first compound 0.000316 µM): 89% | viability, T/C (second compound 0.316 µM, first compound 0.001 µM): 80.6% | viability, T/C (second compound 0.316 µM, first compound 0.00316 µM): 85% | viability, T/C (second compound 0.316 µM, first compound 0.01 µM): 97.4% | viability, T/C [5]: 88.3% | viability, T/C [6]: 88.7% | viability, T/C (second compound 1 µM, first compound 0.000316 µM): 96.3% | viability, T/C (second compound 1 µM, first compound 0.001 µM): 78.9% | viability, T/C (second compound 1 µM, first compound 0.00316 µM): 88.5% | viability, T/C (second compound 1 µM, first compound 0.01 µM): 87.2% | viability, T/C [7]: 82.5% | viability, T/C [8]: 77.2% | viability, T/C (second compound 3.16 µM, first compound 0.000316 µM): 80.9% | viability, T/C (second compound 3.16 µM, first compound 0.001 µM): 83.6% | viability, T/C (second compound 3.16 µM, first compound 0.00316 µM): 91.1% | viability, T/C (second compound 3.16 µM, first compound 0.01 µM): 80.7% | viability, T/C [9]: 85.1% | viability, T/C [10]: 75.1% | viability, T/C (second compound 10 µM, first compound 0.000316 µM): 73.8% | viability, T/C (second compound 10 µM, first compound 0.001 µM): 67.5% | viability, T/C (second compound 10 µM, first compound 0.00316 µM): 72.1% | viability, T/C (second compound 10 µM, first compound 0.01 µM): 75.9% | viability, T/C [11]: 66% | viability, T/C [12]: 56.9%

IC50 (second compound 0.0316 µM): > 10 µM | IC50 (second compound 0.1 µM): 7.11 µM | IC50 (second compound 0.316 µM): 6.6 µM | IC50 (second compound 1 µM): 5.13 µM | IC50 (second compound 3.16 µM): 1.04 µM | IC50 (second compound 10 µM): 0.455 µM
Compound: CCCS(=O)(=O)Nc1ccc(F)c(C(=O)c2c[nH]c3ncc(-c4ccc(Cl)cc4)cc23)c1F + Cc1nc(NC(=O)N2CCCC2C(N)=O)sc1-c1ccnc(C(C)(C)C(F)(F)F)c1
viability, T/C [1]: 68% | viability, T/C [2]: 77.2% | viability, T/C [13]: 61.6% | viability, T/C [14]: 76.8% | viability, T/C [15]: 87.3% | viability, T/C [16]: 42.2% | viability, T/C [3]: 84% | viability, T/C [4]: 64.8% | viability, T/C [17]: 61.2% | viability, T/C [18]: 91.9% | viability, T/C [19]: 96.5% | viability, T/C [20]: 37.7% | viability, T/C [5]: 72.3% | viability, T/C [6]: 72.7% | viability, T/C [21]: 53.8% | viability, T/C [22]: 73.1% | viability, T/C [23]: 78.1% | viability, T/C [24]: 38.9% | viability, T/C [7]: 74.6% | viability, T/C [8]: 50.7% | viability, T/C [25]: 54.4% | viability, T/C [26]: 65.6% | viability, T/C [27]: 75.9% | viability, T/C [28]: 30.4% | viability, T/C [9]: 79.6% | viability, T/C [10]: 60.6% | viability, T/C [29]: 56.4% | viability, T/C [30]: 51.7% | viability, T/C [31]: 52% | viability, T/C [32]: 23.2% | viability, T/C [11]: 58.7% | viability, T/C [12]: 50% | viability, T/C [33]: 49.9% | viability, T/C [34]: 45.1% | viability, T/C [35]: 41.1% | viability, T/C [36]: 19%

IC50 (second compound 0.0316 µM): > 10 µM | IC50 (second compound 0.1 µM): > 10 µM | IC50 (second compound 0.316 µM): > 10 µM | IC50 (second compound 1 µM): > 10 µM | IC50 (second compound 3.16 µM): > 10 µM | IC50 (second compound 10 µM): > 10 µM
Compound: CNC(=O)c1ccc(N2C(=S)N(c3ccc(C#N)c(C(F)(F)F)c3)C(=O)C2(C)C)cc1F + Cc1nc(NC(=O)N2CCCC2C(N)=O)sc1-c1ccnc(C(C)(C)C(F)(F)F)c1
viability, T/C [1]: 87.5% | viability, T/C [2]: 108% | viability, T/C [13]: 102% | viability, T/C [14]: 108% | viability, T/C [15]: 94.1% | viability, T/C [16]: 121% | viability, T/C [3]: 85.6% | viability, T/C [4]: 87.5% | viability, T/C [17]: 78.3% | viability, T/C [18]: 90.6% | viability, T/C [19]: 90.4% | viability, T/C [20]: 114% | viability, T/C [5]: 76.1% | viability, T/C [6]: 86.1% | viability, T/C [21]: 97.8% | viability, T/C [22]: 94.4% | viability, T/C [23]: 81.9% | viability, T/C [24]: 96.2% | viability, T/C [7]: 79.1% | viability, T/C [8]: 78.9% | viability, T/C [25]: 99% | viability, T/C [26]: 96.7% | viability, T/C [27]: 113% | viability, T/C [28]: 90.9% | viability, T/C [9]: 81.3% | viability, T/C [10]: 92.2% | viability, T/C [29]: 89.1% | viability, T/C [30]: 84.7% | viability, T/C [31]: 101% | viability, T/C [32]: 86.4% | viability, T/C [11]: 81.5% | viability, T/C [12]: 74.8% | viability, T/C [33]: 73% | viability, T/C [34]: 73.9% | viability, T/C [35]: 79.1% | viability, T/C [36]: 65%
